# According to article PMC9929232, “On-demand male contraception via acute inhibition of soluble adenylyl cyclase” (Nature Communications, 2023):
# Values joined by “and” are separate entries in the source; they are usually repeats but may differ in a detail not shown here. Equal entries are not always repeated.
# Legend:
# human sperm [1] = test: cAMP generation in human sperm in vitro, incl. wash-out by dilution; format: cell-based; conditions: 30 minutes
# Experimental: Samples of human semen were obtained from healthy volunteers with their prior written consent following a protocol approved by Weill Cornell Medicine’s Institutional Review Board (IRB 21-03023495). […] Semen was incubated for 30 min in a 37 °C incubator to liquefy. […] The tubes were incubated at a tilted angle of 45° at 37 °C for 60 min. Motile sperm were allowed to swim up into the HTF layer; immotile sperm and other cells or tissue debris remain in the ejaculate fraction. Up to 3 ml of the HTF layer was transferred to a fresh tube and washed twice in HTF by centrifugation (700 × g, 20 min). The supernatant was removed after the last centrifugation step and the sperm pellet was resuspended in 1 ml HTF. The purity and vitality of each sample was assessed via light microscopy. Sperm cell numbers were determined using a hemocytometer and adjusted to a concentration of 1 × 10^7 cells/ml.
# mouse sperm [2] = test: Flagellar beat frequency of tethered mouse sperm; format: cell-based
# Experimental: (§1) An inverted dark-field video microscope (IX73; Olympus) with a 10 x objective (mouse sperm) or a 20 x objective (human sperm) (UPLSAPO, NA 0.8; Olympus) was combined with a high-speed camera (ORCA Fusion; Hamamatsu). Dark-field videos were recorded with a frame rate of 200 Hz. The temperature of the heated stage was set to 37 °C (stage top incubator WSKMX; TOKAI HIT). The images were preprocessed with the ImageJ plugin SpermQ Preparator (Gaussian blur with sigma 0.5 px; subtract background method with radius 5 px) and analyzed using the ImageJ plugin SpermQ[57]. The beat frequency was determined from the highest peak in the frequency spectrum of the curvature time course, obtained by Fast Fourier Transform.
# human sperm [3] = test: Flagellar beat frequency of tethered human sperm; format: cell-based
# Experimental: as §1
# mouse sperm [4] = test: Acrosome reaction assay, mouse sperm, zona pellucidae-evoked; format: cell-based
# Experimental: Zonae pellucidae were isolated from female mice superovulated by intraperitoneal injection of 10 I.U. […] 3 days before the experiment. 14 h before oocyte isolation, mice were injected with 10 I.U. pregnant mare’s serum gonadotropin. Mice were sacrificed by cervical dislocation and oviducts were dissected. Cumulus-enclosed oocytes were separated from the oviducts and placed into TYH buffer containing 300 μg/ml hyaluronidase. After 15 min, cumulus-free oocytes were transferred into fresh buffer and washed twice. Zonae pellucidae and oocytes were separated by shear forces generated by expulsion from […] pasteur pipettes. Zona pellucidae were counted, transferred into fresh buffer, and heat-solubilized by incubation for 10 min at 65 °C.
# (§2) Acrosome reaction was induced by incubating mouse sperm with 50 mouse solubilized zonae pellucidae for 15 min at 37 °C. Human sperm were incubated with 10 μM progesterone for 30 min at 37 °C. […] Samples were air-dried on microscope slides and fixed for 30 minutes in 100% ethanol at room temperature (RT). For acrosome staining, mouse and human sperm were incubated for 30 min in the dark with 5 μg/ml PNA-FITC or 5 μg/ml PSA-FITC, respectively, and counterstained with 2 μg/ml DAPI. After curing, slides were analyzed using a Zeiss LSM 880 Laser Scanning Confocal Microscope; images were captured with two photomultiplier and one Gallium Arsenide Phosphide detector using ZEN Imaging software. For each condition, at least 600 cells were analyzed using ImageJ 1.52.
# human sperm [5] = test: Acrosome reaction assay, human sperm, progesterone-evoked; format: cell-based
# Experimental: as §2
# epididymal mouse sperm [6] = test: Ex vivo motility (CASA) of epididymal sperm from inhibitor-treated male mice; format: in vivo; design: hyperactivated motility (%): concentration or dose not given beside the values
# Experimental: Sperm movements of 10 fields of at least 200 sperm were examined using computer-assisted sperm analysis (CASA) via Hamilton–Thorne digital image analyzer (IVOS II, Hamilton Thorne Research, Beverly, MA) with the following parameters: 30 frames, frame rate: 60 Hz, cell size: 30–170 μm^2. Ejaculated uterine mouse sperm were recorded without additional dilution. Sperm were considered motile when presenting STR ≥80% and VAP ≥50 μm/s and hyperactivated when presenting VCL ≥270 μm/s, LIN < 50%, and ALH ≥7 μm. Track´s color code: motile (green), progressive (turquoise), hyperactivated (purple), slow (pink), static (red), not counted due to late entry (yellow).
# mouse sperm [7] = test: cAMP generation in mouse sperm in vitro, incl. wash-out by dilution; conditions: 12 minutes
# Experimental: For capacitation, sperm were incubated for 90 min in TYH containing 3 mg/ml BSA and 25 mM NaHCO3 in a 37 °C incubator. To control for the consequences of dilution during isolation of epididymal mouse sperm for ex vivo assays, we assessed the ability of bicarbonate to induce a prototypical pattern of tyrosine phosphorylation (pY) which is a widely used molecular hallmark of capacitation[53]. Bicarbonate-induced pY is known to be sAC dependent in vitro[20],[22],[35]. For experiments studying sperm from injected mice, ‘swim out’ was performed in 200 μl TYH, which corresponded to a 1:10 dilution from epididymis (20 μg cauda in 200 μl buffer). Capacitation-induced changes were assessed by adding 50 µl of ‘swim out’ sperm to increasing volumes of capacitating TYH buffer.
# cAMP generation was measured in mouse and human sperm. […] For human sperm, aliquots of 2 × 10^6 cells were incubated for 30 min in the presence or absence of sAC inhibitor in non-capacitating or capacitating HTF buffer. In both cases, 0.1% DMSO was used as vehicle control.
# After 5 min, 150 µl of sperm/inhibitor mix was diluted into 1.35 ml non-capacitating or capacitating media with no inhibitor. […] Sperm lysates were centrifuged at 2000 × g for 3 min and the cAMP in the supernatant was acetylated and quantified using the Direct cAMP ELISA kit (Enzo).
# epididymal mouse sperm [8] = test: Tyrosine phosphorylation (pY) Western blot of sperm from injected mice; conditions: 50 mg/kg i.p., 1 hour
# Experimental: For capacitation, sperm were incubated for 90 min in TYH containing 3 mg/ml BSA and 25 mM NaHCO3 in a 37 °C incubator. To control for the consequences of dilution during isolation of epididymal mouse sperm for ex vivo assays, we assessed the ability of bicarbonate to induce a prototypical pattern of tyrosine phosphorylation (pY) which is a widely used molecular hallmark of capacitation[53]. […] For experiments studying sperm from injected mice, ‘swim out’ was performed in 200 μl TYH, which corresponded to a 1:10 dilution from epididymis (20 μg cauda in 200 μl buffer). Capacitation-induced changes were assessed by adding 50 µl of ‘swim out’ sperm to increasing volumes of capacitating TYH buffer.
# Mouse sperm from vehicle- or inhibitor-injected mice were isolated 1 hour post injection from male mice injected (i.p.) with 150 µl of solution containing sAC inhibitor or vehicle. ‘Swim out’ sperm were diluted 1:1 to 1:100 in capacitating TYH media. As control, sperm from vehicle-injected mice were diluted 1:100 in non-capacitating and capacitating TYH buffer. The samples were incubated for 90 min, washed with 1 ml PBS and sedimented by centrifugation at 2000 × g for 3 min. The sedimented sperm were resuspended in 15 μl 2× Laemmli sample buffer, heated for 5 min at 95 °C, supplemented with 8 µl β-mercaptoethanol and heated again for 5 min at 95 °C. For Western blot analysis, proteins were transferred onto PVDF membranes (Thermo Scientific), probed with anti-phosphotyrosine (1:1000, clone 4G10, Merck Millipore) and anti-mouse IgG (1:10,000, Cell Signaling Technology) antibodies, and analyzed using a chemiluminescence detection system. Image lab (Bio-Rad) was used for densitometric analysis of western blots.
# [9] = sheet Fig. 2c replicates, 5 μM TDI-10229 or 10 nM TDI-11861 present
# [10] = sheet Fig. 2d replicates, 5 min preincubation in 5 μM TDI-10229 or 10 nM TDI-11861, diluted 1:100 into inhibitor-free media
# [11] = sheet Fig. 2a replicates, 5 μM TDI-10229 or 10 nM TDI-11861 present
# [12] = sheet Fig. 2b replicates, 5 min preincubation in 5 μM TDI-10229 or 10 nM TDI-11861, diluted 1:100 into inhibitor-free media
smiles,measurement,setting,value
Nc1nc(Cl)cc(-c2nn(C(F)F)cc2Cc2ccccc2OCCN2CCOC[C@@H]2CO)n1 [TDI-11861],"cAMP, capacitation media",human sperm [1]; [9],0.4536 pmol/10^6 sperm and 0.2982 pmol/10^6 sperm and 0.3279 pmol/10^6 sperm and 0.1875 pmol/10^6 sperm and 0.4476 pmol/10^6 sperm and 0.4575 pmol/10^6 sperm and 0.7152 pmol/10^6 sperm and 0.6672 pmol/10^6 sperm and 0.4645 pmol/10^6 sperm and 0.4351 pmol/10^6 sperm and 0.0606 pmol/10^6 sperm and 0.2667 pmol/10^6 sperm
same,"cAMP, non-capacitation media",human sperm [1]; [9],0.6403 pmol/10^6 sperm and 0.8029 pmol/10^6 sperm and 0.2251 pmol/10^6 sperm and 0.2037 pmol/10^6 sperm and 0.6722 pmol/10^6 sperm and 0.7415 pmol/10^6 sperm and 0.6566 pmol/10^6 sperm and 0.7427 pmol/10^6 sperm and 0.4253 pmol/10^6 sperm and 0.8706 pmol/10^6 sperm and 0.1092 pmol/10^6 sperm and 0.7462 pmol/10^6 sperm
same,"cAMP, capacitation media",human sperm [1]; [10],0.7435 pmol/10^6 sperm and 0.3279 pmol/10^6 sperm and 0.4575 pmol/10^6 sperm and 0.7152 pmol/10^6 sperm and 0.6672 pmol/10^6 sperm and 0.4645 pmol/10^6 sperm and 0.4351 pmol/10^6 sperm and 0.0606 pmol/10^6 sperm and 0.2667 pmol/10^6 sperm and 0.2982 pmol/10^6 sperm
same,"cAMP, non-capacitation media",human sperm [1]; [10],0.059 pmol/10^6 sperm and 0.2015 pmol/10^6 sperm and 0.452 pmol/10^6 sperm and 0.1712 pmol/10^6 sperm and 1.016 pmol/10^6 sperm and 0.658 pmol/10^6 sperm and 0.9025 pmol/10^6 sperm and 0.216 pmol/10^6 sperm and 0.84 pmol/10^6 sperm and 0.1317 pmol/10^6 sperm
same,"Beat frequency, Basal","mouse sperm [2]; distal 10 μm of flagellum, 5 μM TDI-10229 or 10 nM TDI-11861, mean ± SEM",14.8 ± 1.0 Hz
same,"Beat frequency, + HCO3-","mouse sperm [2]; distal 10 μm, 25 mM NaHCO3, 5 μM TDI-10229 or 10 nM TDI-11861, mean ± SEM",22.7 ± 1.6 Hz
same,"Beat frequency, Basal","human sperm [3]; distal 5 µm of flagellum, 5 μM TDI-10229 or 10 nM TDI-11861, mean ± SEM",11.4 ± 1.3 Hz
same,"Beat frequency, + HCO3-","human sperm [3]; distal 5 µm, 25 mM NaHCO3, 5 μM TDI-10229 or 10 nM TDI-11861, mean ± SEM",11.0 ± 0.8 Hz
same,toxicity to sperm (rescue of acrosome response by cAMP/IBMX),mouse sperm [4],not toxic to sperm
same,"Acrosome reacted (%), basal + db-cAMP/IBMX","mouse sperm [4]; Fig. 2g replicates, 5 mM db-cAMP/500 μM IBMX, 5 μM TDI-10229 or 10 nM TDI-11861",33.6897% and 30.4912% and 38.1667% and 17.5365% and 24% and 40.1452%
same,"Acrosome reacted (%), ZP","mouse sperm [4]; Fig. 2g replicates, 50 heat-solubilized zona pellucidae, 5 μM TDI-10229 or 10 nM TDI-11861",22.9233% and 33% and 26.2439% and 20.6667% and 34.5025% and 32.3333%
same,"Acrosome reacted (%), basal","mouse sperm [4]; Fig. 2g replicates, 90 min capacitating media, 5 μM TDI-10229 or 10 nM TDI-11861",31.9785% and 35% and 27.6378% and 28.974% and 29% and 25%
same,"Acrosome reacted (%), ZP + db-cAMP/IBMX","mouse sperm [4]; Fig. 2g replicates, zona pellucidae, 5 mM db-cAMP/500 μM IBMX, 5 μM TDI-10229 or 10 nM TDI-11861",42.963% and 32.2222% and 37.3475% and 28% and 29.3534% and 43%
same,toxicity to sperm (rescue of acrosome response by cAMP/IBMX),human sperm [5],not toxic to sperm
same,"Acrosome reacted (%), Prog","human sperm [5]; Fig. 2h replicates, 10 μM progesterone, 5 μM TDI-10229 or 10 nM TDI-11861",11.2728% and 11.1787% and 11.2041% and 9.266% and 10.4762% and 13.6206%
same,"Acrosome reacted (%), Prog + db-cAMP/IBMX","human sperm [5]; Fig. 2h replicates, 10 μM progesterone, 5 mM db-cAMP/500 μM IBMX, 5 μM TDI-10229 or 10 nM TDI-11861",28.3207% and 19.1712% and 18.125% and 29.0658% and 24.3412% and 18.4673%
same,"Acrosome reacted (%), basal + db-cAMP/IBMX","human sperm [5]; Fig. 2h replicates, 5 mM db-cAMP/500 μM IBMX, 5 μM TDI-10229 or 10 nM TDI-11861",16.1667% and 6.667% and 10.5% and 10.6667% and 19.1045% and 11.7728%
same,"Acrosome reacted (%), basal","human sperm [5]; Fig. 2h replicates, 180 min capacitating media, 5 μM TDI-10229 or 10 nM TDI-11861",12.5473% and 10% and 15.2336% and 15.1667% and 10.3704% and 13.6209%
same,earliest time of motility inhibition post i.p.-injection,epididymal mouse sperm [6]; 50 mg/kg i.p.,15 min
same,recovery of sperm motility,"epididymal mouse sperm [6]; 50 mg/kg i.p., 24 hours post-injection",most sperm from TDI-11861-injected mice had recovered motility
same,motility of epididymal sperm diluted ex vivo,epididymal mouse sperm [6]; 50 mg/kg oral,essentially immotile
same,motility (%),"epididymal mouse sperm [6]; Fig. 3b replicates, 50 mg/kg oral gavage, 1 hour, diluted 1:100 in inhibitor-free non-capacitating media, CASA, 50 mg/kg",2.8% and 0.5% and 0.3% and 0.7% and 1.7% and 1.9% and 3.3% and 1.6% and 3.6% and 3.8% and 1.1%
same,"motility (%), + cAMP","epididymal mouse sperm [6]; Fig. 3b replicates, 50 mg/kg oral gavage, 1 hour, in presence of 5 mM db-cAMP/500 μM IBMX, 50 mg/kg",10.8% and 22.6% and 32.3% and 13.1% and 19.4% and 14.6% and 14% and 11.2%
same,progressive motility (%),"epididymal mouse sperm [6]; Fig. 4b, epididymal sperm",0.9% and 1.3% and 2.1% and 0.4% and 1.5% and 0.8% and 0.3%
same,hyperactivated motility (%),"epididymal mouse sperm [6]; Fig. 4c, epididymal sperm",0.8% and 0.4% and 1.6% and 0.2% and 0.1% and 0.6% and 0.3%
same,motility (%),"epididymal mouse sperm [6]; Fig. 5, time 0.25 h",0.4% and 0.6% and 0.8% and 0.3% and 0.7% and 1.3% and 1%
same,motility (%),"epididymal mouse sperm [6]; Fig. 5, time 0.5 h",3.4% and 0.5% and 1.4% and 4.6% and 1.7% and 0.9%
same,motility (%),"epididymal mouse sperm [6]; Fig. 5, time 2 h",1.1% and 1.7% and 1.2% and 0.7% and 2.3% and 2.7%
same,motility (%),"epididymal mouse sperm [6]; Fig. 5, time 2.5 h",0.8% and 6.3% and 0.7% and 1.3% and 0.9% and 0.4%
same,motility (%),"epididymal mouse sperm [6]; Fig. 5, time 3 h",1.2% and 0.4% and 6.5% and 6.2% and 3.7%
same,motility (%),"epididymal mouse sperm [6]; Fig. 5, time 24 h",22.8% and 19.1% and 22% and 33.1% and 20.5% and 20.6%
same,motility (%),"epididymal mouse sperm [6]; Fig. 3d, + cAMP, individual replicates",17.3% and 12.5% and 13.3% and 33% and 16.6% and 14.6%
same,motility (%),"epididymal mouse sperm [6]; Fig. 3d, individual replicates",3% and 0.6% and 2% (2×) and 1.9% and 3.8% and 2.2% and 2.3% and 1.4% and 0.9% (2×) and 2.5% and 0.4% and 0.2% and 1.1% and 2.8%
same,"cAMP, capacitation media",mouse sperm [7]; [11],0.4536 pmol/10^6 sperm and 0.2982 pmol/10^6 sperm and 0.3279 pmol/10^6 sperm and 0.1875 pmol/10^6 sperm and 0.4476 pmol/10^6 sperm and 0.4575 pmol/10^6 sperm and 0.7152 pmol/10^6 sperm and 0.6672 pmol/10^6 sperm and 0.4645 pmol/10^6 sperm and 0.4351 pmol/10^6 sperm and 0.0606 pmol/10^6 sperm and 0.2667 pmol/10^6 sperm
same,"cAMP, non-capacitation media",mouse sperm [7]; [11],1 pmol/10^6 sperm and 0.8029 pmol/10^6 sperm and 0.2251 pmol/10^6 sperm and 0.2037 pmol/10^6 sperm and 0.6722 pmol/10^6 sperm and 0.7415 pmol/10^6 sperm and 0.6566 pmol/10^6 sperm and 0.7427 pmol/10^6 sperm and 0.4253 pmol/10^6 sperm and 0.8706 pmol/10^6 sperm and 0.1092 pmol/10^6 sperm and 0.7462 pmol/10^6 sperm
same,"cAMP, capacitation media",mouse sperm [7]; [12],0.677 pmol/10^6 sperm and 1.0488 pmol/10^6 sperm and 0.28 pmol/10^6 sperm and 0.63 pmol/10^6 sperm and 0.972 pmol/10^6 sperm and 0.1159 pmol/10^6 sperm and 0.3305 pmol/10^6 sperm and 0.9745 pmol/10^6 sperm and 1.058 pmol/10^6 sperm
same,"cAMP, non-capacitation media",mouse sperm [7]; [12],0.555 pmol/10^6 sperm and 1.0234 pmol/10^6 sperm (2×) and 0.88 pmol/10^6 sperm and 0.438 pmol/10^6 sperm and 0.1502 pmol/10^6 sperm and 1.06 pmol/10^6 sperm and 0.8915 pmol/10^6 sperm and 1.0835 pmol/10^6 sperm
same,capacitation-induced pY pattern,epididymal mouse sperm [8]; diluted 100 fold,remained blocked
same,capacitation-induced pY pattern,epididymal mouse sperm [8]; swim out sperm mixed with equal volume capacitation media,blocked
